According to patent US9567338B2, “Pyrazolo[3,4-d]pyrimidine compounds, their preparation and use as sigma ligands” (LABORATORIOS DEL DR. ESTEVE S.A., priority 2011, dated 2017):

Target: σ1-receptor (Cavia porcellus (Guinea pig), UniProt Q60492)
Assay: σ1-receptor binding assay, [3H]-(+)-pentazocine displacement in brain membranes
Conditions: radioligand [3H]-(+)-pentazocine 5.0 nM; for % Displacement (10^−6 M): compound at 10^−6 M
Procedure: Guinea pig brains were homogenized in 10 vols. (w/v) of Tris-HCl 50 mM 0.32 M sucrose, pH 7.4, with a Kinematica Polytron PT 3000 at 15000 r.p.m. for 30 s. The homogenate was centrifuged at 1000 g for 10 min at 4° C. and the supernatants collected and centrifuged again at 48000 g for 15 min at 4° C. The pellet was resuspended in 10 volumes of Tris-HCl buffer (50 mM, pH 7.4), incubated at 37° C. for 30 min, and centrifuged at 48000 g for 20 min at 4° C. Following this, the pellet was resuspended in fresh Tris-HCl buffer (50 mM, pH 7.4) and stored on ice until use.
The radioligand used was [^3H]-(+)-pentazocine at 5.0 nM and the final volume was 200 μl. The incubation was initiated with the addition of 100 μA of membrane at a final tissue concentration of approximately 5 mg tissue net weight/mL and the incubation time was 150 m. at 37° C. After incubation, the membranes were collected onto pretreated glass fiber filterplate (MultiScreen-FC, Millipore), with polyethylenimine 0.1%. The filters were washed two times with 200 μA of washing buffer (50 mM Tris CI, pH=7.4) and then 25 μl of Ecoscint H liquid scintillation cocktail were added. […] Nonspecific binding was determined with 1 μM haloperidol.

σ1-receptor, sequence (Q60492 whole entry): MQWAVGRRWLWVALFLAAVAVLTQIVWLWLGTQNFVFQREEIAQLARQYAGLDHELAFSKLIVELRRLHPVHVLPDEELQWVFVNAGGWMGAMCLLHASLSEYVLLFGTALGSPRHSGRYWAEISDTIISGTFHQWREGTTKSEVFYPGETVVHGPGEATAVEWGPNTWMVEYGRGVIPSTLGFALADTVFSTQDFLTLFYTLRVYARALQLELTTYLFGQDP

% Displacement (10^−6 M)	Ki	Ki (maleate)	SMILES
78.6%	73.1 nM	–	Cl.O=C(Nc1ncnc2c1cnn2CCN1CCCCC1)C1CCCCC1 [Example 6, N-(1-(2-(Piperidin-1-yl)ethyl)-1H-pyrazolo[3,4-d]pyrimidin-4-yl)cyclohexanecarboxamide hydrochloride]
49.50%	700 nM	–	CC(C)(C)c1cc(C(=O)Nc2ncnc3c2cnn3CCN2CCCCC2)cc(C(C)(C)C)c1.Cl [Example 9, 3,5-di-tert-Butyl-N-(1-(2-(piperidin-1-yl)ethyl)-1H-pyrazolo[3,4-d]pyrimidin-4-yl)benzamide hydrochloride]
68.2%	244 nM	–	CC(C)N(CCn1ncc2c(NC(=O)C3CCCCC3)ncnc21)C(C)C.O=C(O)/C=C\C(=O)O [Example 16, N-(1-(2-(Diisopropylamino)ethyl)-1H-pyrazolo[3,4-d]pyrimidin-4-yl)cyclohexanecarboxamide maleate]
90.2%	56.7 nM	–	CC(C)N(CCn1ncc2c(NC(=O)C34CC5CC(CC(C5)C3)C4)ncnc21)C(C)C.O=C(O)/C=C\C(=O)O [Example 18, N-(1-(2-(Diisopropylamino)ethyl)-1H-pyrazolo[3,4-d]pyrimidin-4-yl)-1-adamantylcarboxamide maleate]
90.8%	55 nM	–	CC(C)N(CCn1ncc2c(NC(=O)C34C5CC6CC3CC64C5)ncnc21)C(C)C.Cl [Example 21, N-(1-(2-(Diisopropylamino)ethyl)-1H-pyrazolo[3,4-d]pyrimidin-4-yl)-1-noradamantylcarboxamide hydrochloride]
97.2%	15 nM	–	Cl.O=C(Nc1ncnc2c1cnn2CCN1CCCCCC1)C12C3CC4CC1CC42C3 [Example 22, N-(1-(2-(Azepan-1-yl)ethyl)-1H-pyrazolo[3,4-d]pyrimidin-4-yl) 1-noradamantylcarboxamide hydrochloride]
54.0%	631 nM	–	CC(C)N(CCn1ncc2c(NC(=O)C3CCCC3)ncnc21)C(C)C.O=C(O)/C=C\C(=O)O [Example 28, N-(1-(2-(Diisopropylamino)ethyl)-1H-pyrazolo[3,4-d]pyrimidin-4-yl)cyclopentanecarboxamide maleate]
76.8%	573 nM	–	CC(C)N1CCN(CCn2ncc3c(NC(=O)C45CC6CC(CC(C6)C4)C5)ncnc32)CC1.O=C(O)/C=C\C(=O)O [Example 31, N-(1-(2-(4-isopropylpiperazin-1-yl)ethyl)-1H-pyrazolo[3,4-d]pyrimidin-4-yl) 1-adamantylcarboxamide maleate]
63.3%	–	683 nM	CC(C)N1CCN(CCn2ncc3c(NC(=O)C4CCCC4)ncnc32)CC1.O=C(O)/C=C\C(=O)O [Example 32, N-(1-(2-(4-isopropylpiperazin-1-yl)ethyl)-1H-pyrazolo[3,4-d]pyrimidin-4-yl)cyclopentanecarboxamide maleate]
–	252 nM	–	CCCNC(=O)Nc1ncnc2c1cnn2CCN1CCCOCC1 [Example 44, 1-(1-(2-(1,4-oxazepan-4-yl)ethyl)-1H-pyrazolo[3,4-d]pyrimidin-4-yl)-3-propylurea]
25.9%	805 nM	–	CC(C)N(CCn1ncc2c(NC(=O)NC(C)(C)C)ncnc21)C(C)C.Cl [Example 61, 1-tert-Butyl-3-(1-(2-(diisopropylamino)ethyl)-1H-pyrazolo[3,4-d]pyrimidin-4-yl)urea hydrochloride]
91.4%	108 nM	–	O=C(Nc1ccc(Cl)cc1Cl)Nc1ncnc2c1cnn2CCN1CCCCCC1.O=C(O)CC(O)(CC(=O)O)C(=O)O [Example 64, 1-(1-(2-(azepan-1-yl)ethyl)-1H-pyrazolo[3,4-d]pyrimidin-4-yl)-3-(2,4-dichlorophenyl)urea citrate]
96.8%	27.9 nM	–	CC(C)(C)CC(C)(C)NC(=O)Nc1ncnc2c1cnn2CCN1CCCCCC1.O=C(O)/C=C\C(=O)O [Example 65, 1-(1-(2-(azepan-1-yl)ethyl)-1H-pyrazolo[3,4-d]pyrimidin-4-yl)-3-(2,4,4-trimethylpentan-2-yl)urea maleate]
–	102 nM	–	CCCNC(=O)Nc1ncnc2c1cnn2CCCN1CCCCCC1 [Example 73, 1-(1-(3-(azepan-1-yl)propyl)-1H-pyrazolo[3,4-d]pyrimidin-4-yl)-3-propylurea]
–	212 nM	–	CCCNC(=O)Nc1ncnc2c1cnn2CCN1CCC(C(C)(C)C)CC1 [Example 74, 1-(1-(2-(4-tert-butylpiperidin-1-yl)ethyl)-1H-pyrazolo[3,4-d]pyrimidin-4-yl)-3-propylurea]
96.8%	14.9 nM	–	CNC(=S)Nc1ncnc2c1cnn2CCN1CCCCCC1.O=C(O)/C=C\C(=O)O [Example 76, 1-(1-(2-(azepan-1-yl)ethyl)-1H-pyrazolo[3,4-d]pyrimidin-4-yl)-3-methylthiourea maleate]
–	329 nM	–	CN1CCN(CCCn2ncc3c(NC(=O)C(C)(C)C)ncnc32)CC1 [Example 86, N-(1-(3-(4-methylpiperazin-1-yl)propyl)-1H-pyrazolo[3,4-d]pyrimidin-4-yl)pivalamide]
–	280 nM	–	CCCNC(=O)Nc1ncnc2c1cnn2CCCCN1CCC(C(C)(C)C)CC1 [Example 93, 1-(1-(4-(4-tert-butylpiperidin-1-yl)butyl)-1H-pyrazolo[3,4-d]pyrimidin-4-yl)-3-propylurea]
–	221 nM	–	CC(=O)N(C)c1ncnc2c1cnn2CCN1CCCCCC1 [Example 101, N-(1-(2-(azepan-1-yl)ethyl)-1H-pyrazolo[3,4-d]pyrimidin-4-yl)-N-methylacetamide]
–	740 nM	–	Cc1ccc(C)n1-c1ncnc2c1cnn2CCN1CCCCC1 [Example 105, 4-(2,5-dimethyl-1H-pyrrol-1-yl)-1-(2-(piperidin-1-yl)ethyl)-1H-pyrazolo[3,4-d]pyrimidine]
